According to patent US5608095A, “Alkyl-4-silyl-phenols and esters thereof as antiatherosclerotic agents” (Hoechst Marion Roussel, Inc., priority 1996, dated 1997):
Read-outs that look alike come from different tables or passages of the source.

How the values were obtained:
[1] = Clinical chemistries in serum of rats; type: in vivo, male Sprague-Dawley rats; settings: for response vs control in vivo at 0.3 %: Rattus norvegicus, po, 96 h; for ALP (alkaline phosphatase), percent of control / ALT (alanine aminotransferase), percent of control / AST (aspartate aminotransferase), percent of control / GLUC (glucose), percent of control: rat serum, diet 0.3%, 4 days
Source text: (§1) A typical experiment consisted of 4-6 groups of rats (N=5 per group) with 1 group being a control which received no MDL compound and the other groups being treated with 0.3% MDL compound. Some of the compounds were either repeated at 0.3% or evaluated again at the lower dose of 0.1%. Male Sprague-Dawley rats, 50-100 g, (Harlan Laboratories, Indianapolis, Ind.) were housed in groups of 5, fed ad libitum water and Purina Rodent chow (#5002) with or without MDL compound as a dietary admixture for 4 days. Dietary admixtures (0.3%) were made by mixing 1.2 grams of an MDL compound with 400 grams of Purina rodent chow (#5002). The MDL compound was mixed with approximately 50 grams of food using a mortar and pestle. This was added to the remainder of the food and mixed for 3 hours on a rotary mixer. In the morning of day 5, non-fasted rats were anesthetized with carbon dioxide, and blood was collected by cardiac puncture. Rats were sacrificed by cervical dislocation. Body weights and liver weights were recorded in grams. Food consumption was recorded as grams.cndot.day^-1.cndot.rat^-1. Deaths were recorded as mortality. Aliquots of fresh serum were used for clinical chemistries, thiobarbituric acid reactive substances (TBARS) and conjugated diene measurements. Aliquots of serum (~0.5mL) and whole livers were frozen at -20° C. for compound and metabolite concentration determination at a later time.
Blood was allowed to clot at room temperature for 30 minutes. Serum was obtained after centrifugation for 10 min at 4° C. at 3000 rpm in a Beckman J-6M/E centrifuge with a JS-4.2 rotor. Fresh serum was analyzed by a COBAS MIRA S autoanalyzer (Roche Diagnostics) using Roche diagnostic reagents for the following clinical chemistry measurements: alkaline phosphatase (ALP, kit #44553), alanine transaminase (ALT, kit #42375), aspartate aminotransferase (AST, kit #42381), total cholesterol (CHOL, kit #44334), triglyceride (TG, kit #44120), and glucose (GLU, kit #44558). ALP, ALT, and AST were calculated as units/L. Cholesterol, triglycerides, and glucose were calculated as mg/dL.

[2] = tested on: oxidation of serum lipids; experiment: TBARS assay, rat serum; type: in vivo, male Sprague-Dawley rats; settings: Rattus norvegicus, po, 96 h, read-out: TBARS, percent of control
Source text: as §1
In this assay the oxidation of serum lipids is initiated with CuSO4, resulting in the formation of aldehydes, such as malondialdehyde (MDA). Upon incubation with thiobarbituric acid, the absorbance of the aldehydes can be detected at 530-540 nm. As stated in the previous example, TBARS values which are lower than control serum values indicate the relative ability of a test compound to inhibit the oxidation of lipids in a sample. TBARS were measured as follows: 100 μL of serum were mixed with 400 μL of a 5 mmol CuSO4 solution and incubated at 37° C. for 3 hr. The reactions were stopped by addition of 1.0 mL of 20% trichloroacetic acid. Then 1.0 mL of 0.67% thiobarbituric acid in 0.05N sodium hydroxide was added, mixed, and the samples incubated for 30 min at 90° C. Samples were centrifuged briefly to pellet undissolved material, and the supernatants were transferred to a 96-well microtiter plate. Absorbances were measured at 540 nm using a Biotek model EL311 microplate reader. The nmoles of MDA produced were calculated from a standard curve of 0 to 10 nmoles of MDA prepared from malonaldehyde bis(dimethylacetal). Serum samples from treated rats were compared to serum samples from control rats that received no MDL compound.

oxidation of lipids = experiment: Conjugated diene determination, rat serum; type: in vivo, male Sprague-Dawley rats; settings: pooled rat serum, diet 0.3%, 4 days, mean of 2 determinations
Source text: as §1
Conjugated diene lag phase is another indicator of the oxidation of lipids. Lipids exposed to Cu^++ form conjugated dienes that absorb ultraviolet light in the range of 230 to 235 nm. The lag phase of diene formation gives an indication of the amount of oxidation of the lipids. A lag phase longer than control samples indicate inhibition of the oxidation. Conjugated diene lay phase was determined using a Varian DMS200 spectrophotometer (fitted with a constant temperature, 5 cuvette sample changer) at 30° C. Twenty (20) μL of pooled serum were added to cuvettes containing 3.0 mL phosphate buffered saline, pH 7.5, and mixed. The absorbances of all cuvettes were measured, and the instrument baseline was set to zero using the lowest absorbing sample. Next, 100 μL of 1 mmol CuSO4 were added and immediately mixed. The absorbance of each cuvette was recorded at 2 min intervals for a period of 840 min. The data were captured and transferred to a Microsoft EXCEL® spreadsheet where the curves were smoothed and differentials obtained. Lag times were determined mathematically as minutes. Serum samples were pooled (N=5); data presented are the mean values of 2 determinations. Serum samples from treated rats were compared to serum samples from control rats that received no MDL compound.

[3] = Animal parameters (food, body weight, liver weight, mortality) in rats; type: in vivo, male Sprague-Dawley rats; settings: diet 0.3%, 4 days; for mortality at 96 h: in vivo, po, read-out: mortality (deaths per group); for mortality at 96 h / body wt., percent of control / lw/bw (liver weight/body weight), percent of control: rat
Source text: as §1

[4] = HPLC quantitation of compound and metabolite concentration in rat serum and liver; type: in vivo, male Sprague-Dawley rats; settings: diet 0.3%, 4 days; for Liver Parent = parent compound concentration: rat liver; for Serum Parent = parent compound concentration: rat serum
Source text: as §1
Serum and liver concentrations of parent compound and the metabolites, bisphenol and diphenoquinone, were determined by reverse phase HPLC using a Waters 990 Powerline system. Livers (1 gram samples) were homogenized with 5.0 mL PBS, pH 7.4, using a Polytron tissue homogenizer at setting 5 for 20-30 seconds. Serum or liver homogenates were extracted as follows: 100μL of either serum or homogenate were added to 2.0 mL diethyl ether:ethanol (3:1) while vortexing the tube. The sample tubes were capped and centrifuged for 10 min at 5° C. at 3500 rpm in a Beckman GPKR centrifuge with a GH 3.7 rotor. The supernatants were transferred to clean tubes and dried under N2. Samples were reconstituted with 200 μL of acetonitrile:hexane:0.1M ammonium acetate (90:6.5:3.5, by vol.). Then, 100 μL were injected onto a Waters Deltapak C18-300 Å column, and eluted with an 83% acetonitrile:17% water mobile phase at a flow rate of 1.5 mL/min. Absorbances at the wavelengths of 240, 254, and 420 nm were recorded. Compound concentrations were calculated from known quantities of authentic parent compounds after correction for recovery; the range of recovery from spiked samples was 40 to 100%. The lowest detectable limit for this class of compounds was ~0.5 μg/mL. […]. Concentrations were calculated as μg/mL of serum and μg/g of liver.

VCAM-1 = settings: vascular endothelial cells; cited from earlier work
[5] = read-out: CHOL (total cholesterol), percent of control
[6] = read-out: TRIG (triglycerides), percent of control

| Compound | response vs control in vivo at 0.3 % [1, 5] [%] | response vs control in vivo at 0.3 % [1, 6] [%] | ALP (alkaline phosphatase), percent of control [1] [%] | ALT (alanine aminotransferase), percent of control [1] [%] | AST (aspartate aminotransferase), percent of control [1] [%] | GLUC (glucose), percent of control [1] [%] | response vs control in vivo at 0.3 % [2] [%] | CONJ. DIENE (conjugated diene lag phase) (oxidation of lipids) [min] | food (grams eaten per day per rat), percent of control [3] [%] | mortality at 96 h [3] [%] | body wt., percent of control [3] [%] | lw/bw (liver weight/body weight), percent of control [3] [%] | Liver Parent = parent compound concentration [4] [µg/g] | Serum Parent = parent compound concentration [4] [µg/mL] | inhibition of cytokine-induced expression of VCAM-1 (VCAM-1) |
| --- | --- | --- | --- | --- | --- | --- | --- | --- | --- | --- | --- | --- | --- | --- | --- |
| CC(=O)Oc1c(C)cc(OC[Si](C)(C)c2ccccc2)c(C)c1C [MDL 103,157, 2,3,6-Trimethyl-4-[(dimethylphenylsilyl)methyloxy]phenol acetic acid ester] | 112 | 82 | 144 | 133 | 92 | 100 | 94 | 50 | 96 | 0 | 96 | 120 | 0 | 0 | – |
| CC(C)(C)c1cc(OC[Si](C)(C)c2ccccc2)ccc1OC(=O)CCC(=O)O [MDL 104,399, 2-t-Butyl-4-[(dimethylphenylsilyl)methyloxy]phenol succinic acid ester] | 130 | 168 | 91 | 107 | 102 | 88 | 41 | 395 | 90 | 0 | 101 | 118 | 0 | 0 | – |
| CC(=O)Oc1cc(C(C)(C)C)c(OC[Si](C)(C)c2ccccc2)cc1C(C)(C)C [MDL 106,290, 2,5-Di-t-butyl-4-[(dimethylphenylsilyl)methyloxy]phenol acetic acid ester] | 153 | 75 | 118 | 89 | 84 | 109 | 17 | 372 | 108 | 0 | 95 | 104 | – | – | – |
| CC(=O)N[C@@H](CS)C(=O)O [N-acetylcysteine] | – | – | – | – | – | – | – | – | – | – | – | – | – | – | inhibit cytokine-induced expression of VCAM-1 |
| S=C(S)N1CCCC1 [pyrollidine dithiocarbamate] | – | – | – | – | – | – | – | – | – | – | – | – | – | – | inhibit cytokine-induced expression of VCAM-1 |
